Values quoted from earlier work in patent publication US20120276003A1, “COMPOUND CONTAINING AN OXYGEN-15, PREPARATION AND USE THEREOF, AND COMPOSITION COMPRISING THEREOF” (Beijing Top Grade Medical Equipment Co., Ltd., priority 2011, published 2012).

Details: perfusion imaging agent; stated 'academically'

## [15OH2] [^15O-water]
  one-time through uptake rate: ~100%
